Measured values as given in patent publication US9334523B2, “Substrates and methods for staining live stem cells” (LIFE TECHNOLOGIES CORPORATION, priority 2011, dated 2016).
Entries after “also recorded” stand apart in the source; their conditions may differ. Where two headings read alike, the source gives them in different places.

How the values were obtained:
H9 ESCs = test: Live staining of H9 ESCs cultured on MEF feeders with alkaline phosphatase substrates; format: cell-based, human; settings: for concentration range of fluorescence: FIG. 1; for concentration at which robust staining of ESC colonies was achieved: FIG. 2
Method: (§1) Here, two test alkaline phosphate substrates, Fluorescein diphosphate-AM ester (FDP-AM) and DDAOP-AM ester were tested for live staining on pluripotent stem cells like H9 ESCs cultured on MEF (mouse embryonic fibroblast) feeder cells. H9 ESCs and other stem cells expressed high alkaline phosphatase. Negative control cells were MEFs and human dermal fibroblasts which express far lower levels of alkaline phosphatase.
(§2) A 10 mM substrate master stock solution (1000×) of fluorescein diphosphate-AM ester (FDP-AM) or DDAOP-AM was prepared (for FDP-AM for e.g., by adding 512.5 μL of tissue culture grade DMSO to 4 mg of the compound (MW: 780.52)).
(§3) Then, 100 μL of 10 mM FDP-AM or DDAOP-AM solution was diluted into 900 μL of DMEM to make 1 mM working stock; or 10 μM working stock was prepared by diluting 10 μl to 10 ml with 100 mM Tris-HCl pH 8.2 or DMEM basal media; or 1 μM working stock was prepared by diluting 10 μL of 1 mM working stock in 10 ml of DMEM, which was used.
(§4) The AP (alkaline phosphatase) live compound with concentrations ranging: >1 μM, 5 μM, 10 μM, 50 μM, 100 μM, and 200 μM, was made by adding 1, 5, 10, 50, 100 and 200 μL of 1 mM FDP-AM or DDAOP-AM working stock. Similarly, the AP live compounds with concentrations ranging: >20 nM, 50 nM, 100 nM, 250 nM, 500 nM, and 800 nM, was made by adding 2, 5, […], 25, 50 and 80 μL of 1 μM FDP-AM working stock. The first dilution was added to an empty plate (no seeded cells) containing DMEM. The final concentration of the substrates, on the cells, were as follows: 50-200 nM for FDP-AM, and 50-200 μM for DDAOP-AM.
(§5) Incubation times were then determined, beginning with 90 seconds. Where no FITC expression was detected, expression was continued for up to 30 minutes. Levamisole was added to the wash buffer to quench the reaction. This step is whoever optional and not necessary. The samples were rinsed with DMEM and visualized.

[1] = system: MEF (mouse embryonic fibroblast) feeder cells; test: Background staining in negative control cells (MEFs, fibroblasts); format: cell-based
Method: as §1, §2, §3, §4, §5

[2] = system: differentiating osteoblasts versus AdSCs; test: Staining of adipose derived mesenchymal stem cells and derived osteoblasts; format: cell-based; settings: FIG. 8
From the text: Alkaline phosphatase is also expressed at high levels in differentiating osteoblasts and mature osteocytes.

mouse ESCs = test: Live staining of mouse ESCs on MEF feeders; format: cell-based; settings: 200 nM, 30 min
From the text: Alkaline phosphatase is not specific just for human ESCs but also for murine ESCs. […] The fluorescent signal is robust and visible at lower 5× magnification [FIG. 7].

Structure (SMILES)	morphology of stained ESCs (H9 ESCs)	concentration range of fluorescence (H9 ESCs)	concentration at which robust staining of ESC colonies was achieved (H9 ESCs)	background staining in negative control MEFs [1]	background staining in negative control MEFs ([1]; listed as DDAO-AM)	specificity of staining of osteoblasts versus parent AdSC/MSC [2]	staining of ESC colonies (H9 ESCs)	time for substrate to diffuse out of the ESC (H9 ESCs)	viability of cells after the substrate diffuses out (H9 ESCs)	proliferation of stained cells after removal of the substrate (H9 ESCs; 100-200 nM, 30 minutes)	cell-specific marker expression of stained cells (H9 ESCs; after staining and removal of the substrate)	re-staining with a second exposure the following day (H9 ESCs; after washing, culturing overnight, 30 min exposure)	removal of fluorescent stain from stained cells (H9 ESCs; media with substrate replaced with fresh ESC culture media)	background in MEF feeder cells of mESC culture (mouse ESCs)	staining of mESC colonies (mouse ESCs)	effect on viability or morphology of stained cells (H9 ESCs)
CC(=O)OCOP(=O)(OCOC(C)=O)Oc1ccc2c(c1)C(C)(C)C1=C(Cl)C(=O)C(Cl)=CC1=N2 [DDAOP-AM, DDAO phosphate-AM ester]	altered morphology	micomolar range	200 µM	high background expression	higher background in negative control cells	failed to show specific staining; also recorded: does not show specific staining										
CC(=O)OCOP(=O)(OCOC(C)=O)Oc1ccc2c(c1)Oc1cc(OP(=O)(OCOC(C)=O)OCOC(C)=O)ccc1C21OC(=O)c2ccccc21 [FDP-AM, Fluorescein diphosphate-AM ester]		nanomolecular range	0.2 µM	minimal background		specific staining of differentiating osteoblasts with minimal background in its parental undifferentiated MSC; also recorded: specific staining for the differentiated phenotype (osteoblast) but not in AdSCs	successful staining; also recorded: robust staining	within two hours	viable overnight	continue to proliferate even after removal of the substrate	retain their cell-specific marker expression; also recorded: retained their marker expression	successfully re-stained	completely removed	minimal background staining; also recorded: little or no background	specially stains mESC; also recorded: robust staining	
O=C1OC2(c3ccc(O)cc3Oc3cc(O)ccc32)c2ccccc21 [fluorescein]																does not affect the viability or morphology
